The source of these data is publication PMC12443583 (Nature Medicine, 2025).

Data set [1] concerns p-MEK (Ser222). The data set is described as follows: p-MEK in tumor biopsies, antibody bead-based Luminex. It is filed as in vivo, human. The conditions noted are these: post-treatment versus pretreatment biopsy.
Data set [2] deals with p-ERK (Thr185–Try187). The experiment in a line: p-ERK in tumor biopsies, antibody bead-based Luminex. Particulars: post-treatment versus pretreatment biopsy. The data set is classed as in vivo, human.
Data set [3] deals with LGSOC. Particulars: 23 (binimetinib), cited from earlier work; for progression-free interval / response rate: phase 2 and phase 3 trials, ref 24 (selumetinib), 25 (trametinib); for discontinuation rates because of AEs: ref 25 (trametinib).

In the case of `CNS(=O)(=O)Nc1nccc(Cc2c(C)c3ccc(Oc4ncccn4)cc3oc2=O)c1F` [avutometinib], in data set [1], the “phosphorylation of p-MEK in tumor biopsies” value was “reduction”. Besides, in data set [2], the “phosphorylation of p-ERK in tumor biopsies” value is listed as “reduction”.

Regarding `Cn1cnc2c(F)c(Nc3ccc(Br)cc3F)c(C(=O)NOCCO)cc21` [binimetinib], in data set [3], the progression-free interval was 9.1 months, the response rate was 16% and the “discontinuation rates because of AEs” value is on record as 31%.

As to `Cn1cnc2c(F)c(Nc3ccc(Br)cc3Cl)c(C(=O)NOCCO)cc21` [selumetinib], in data set [3], the progression-free interval was 11 months and the response rate was 15%.

As for `CC(=O)Nc1cccc(-n2c(=O)n(C3CC3)c(=O)c3c(Nc4ccc(I)cc4F)n(C)c(=O)c(C)c32)c1` [trametinib], in data set [3], the progression-free interval is 13 months, the response rate is given as 26% and the “discontinuation rates because of AEs” value is 36%.
